We go through 1 compound from US20230064034A1, “LIGHT STABLE LIQUID DISINFECTANT COMPOSITIONS” (Onyx Lotus, LLC, priority 2021, published 2023).

In the test the test system is E. coli. Kind of test: Durability test: wiped aluminum coupons, surface tested for E. coli by ASTM E-2315. Type of test: cell-based, Escherichia coli. The note with it: aluminum coupon wiped 40 times. The procedure:
The durability test was designed to identify the number of times a surface can be wiped under pressure and prevent growth of pathogens on the surface after the light stable disinfectant was applied. The liquid composition contains 100 mL distilled water, 1.25 g EDTA, 0.01 g silver nitrate, and 0.5 g PVP K-30 having a 100 ppm concentration of silver. Five test solutions were evaluated: 10 mL liquid disinfectant composition, sodium hypochlorite, […] (peracetic acid), and Lysol. This 100 ppm solution of silver solution was loaded into a sprayer and sprayed onto 1×1'' sterilized aluminum or stainless-steel coupons. The aluminum coupons were wiped with a sterilized non-scratch scouring sponge or a soft cloth with a 1 kg weight on top of the non-scratch scouring sponge or a soft cloth then autoclaved. After the aluminum coupons had cooled to room temperature, the test solutions were sprayed onto the coupons. […]

In the case of `OCl` [Sodium hypochlorite], the reduction turned out to be 0%.
